Earlier results on 2 molecules are cited in US20020072062A1, “Chloramphenicol biosynthetic pathway and gene cluster” (Diversa Corporation, priority 1999, published 2002).

Like-named read-outs stand apart in the source and are kept apart here.

In data set [1] the test system is Cm-sensitive Micrococcus luteus. The conditions noted are these: against Cm-sensitive Micrococcus luteus; metabolite of Cm from S. lividans M252 pJV4 transformants.
In data set [2] the test system is Streptomyces venezuelae ISP5230.

On to `O=C(NC(COP(=O)(O)O)C(O)c1ccc([N+](=O)[O-])cc1)C(Cl)Cl` (stereo not drawn) [3′-O-phospho-Cm], for which, in data set [1], the inhibitory activity entry is listed as “negligible inhibitory activity”.
`Nc1ccc(S(N)(=O)=O)cc1` [sulfanilamide]: the sulfanilamide resistance in data set [2] (before replacement of chromosomal pabAB) is 25 micrograms mL-1; in data set [2] (chromosomal pabAB replaced with copy disrupted by apramycin resistance gene), 5 micrograms mL-1.
